Reference: ChEMBL document CHEMBL4304777 (Eur J Med Chem, 2019)

Tests used:
HCT-116 [1] = assay: Induction of apoptosis in human HCT116 cells assessed as apoptotic cells at 10 uM incubated for 72 hrs by annexin V - FITC and propidium iodide staining based flow cytometry (reference value: 6.99 %); assay type: functional
HCT-116 [2] = assay: Induction of apoptosis in human HCT116 cells assessed as apoptotic cells at 0.4 uM incubated for 72 hrs by annexin V - FITC and propidium iodide staining based flow cytometry (reference value: 6.99 %); assay type: functional
OVCAR-8 = assay: Cytotoxicity against human OVCAR8 cells assessed as reduction in cell viability incubated for 72 hrs by SRB assay; assay type: functional, cell-based; settings: OVCAR-8, 72 h
HCT-116 [3] = assay: Cytotoxicity against human HCT116 cells assessed as reduction in cell viability incubated for 72 hrs by SRB assay; assay type: functional, cell-based; settings: HCT-116, 72 h
HuT78 = assay: Antiproliferative activity against human HUT78 cells assessed as reduction in cell viability; assay type: functional, cell-based
K562 = assay: Antiproliferative activity against human K562 cells assessed as reduction in cell viability; assay type: functional, cell-based
MOLT-4 = assay: Antiproliferative activity against human MOLT4 cells assessed as reduction in cell viability; assay type: functional, cell-based
HCT-116 [4] = assay: Induction of apoptosis in human HCT116 cells assessed as apoptotic cells at 2 uM incubated for 72 hrs by annexin V - FITC and propidium iodide staining based flow cytometry (reference value: 6.99 %); assay type: functional
MM1.S [5] = assay: Antiproliferative activity against human MM1S cells assessed as reduction in cell viability; assay type: functional, cell-based
MV4-11 = assay: Antiproliferative activity against human MV4-11 cells assessed as reduction in cell viability; assay type: functional, cell-based
RPMI-8226 = assay: Antiproliferative activity against human RPMI8226 cells assessed as reduction in cell viability; assay type: functional, cell-based
[6] = Antiproliferative activity against human CEM/C1 cells assessed as reduction in cell viability; assay type: functional, cell-based
JVM-2 = assay: Antiproliferative activity against human JVM2 cells assessed as reduction in cell viability; assay type: functional, cell-based
U-937 = assay: Antiproliferative activity against human U937 cells assessed as reduction in cell viability; assay type: functional, cell-based
[7] = target: RAC-alpha serine/threonine-protein kinase (Homo sapiens, UniProt P31749); assay: Inhibition of Akt1 (unknown origin) expressed in Escherichia coli using peptide as substrate incubated for 1 hr by HTRF assay
[8] = AUC (0 to t) in Sprague-Dawley rat at 10 mg/kg, po measured up 48 hrs by LC-MS/MS analysis; assay type: ADME, organism-based; settings: in vivo
[9] = Half life in Sprague-Dawley rat at 2 mg/kg, iv measured up 48 hrs by LC-MS/MS analysis; assay type: ADME, organism-based; settings: in vivo
[10] = AUC (0 to infinity) in Sprague-Dawley rat at 2 mg/kg, iv measured up 48 hrs by LC-MS/MS analysis; assay type: ADME, organism-based; parameters: dose 2 mg/kg, time infinity, route intravenous; settings: in vivo
[11] = Toxicity in BALB/c mouse xenografted with human MM1S cells assessed as body weight loss at 15 to 30 mg/kg, po administered once daily for 14 days; assay type: organism-based; settings: in vivo, 336 h
[12] = Stability in dog liver microsomes assessed as remaining compound at 100 ug/ml incubated for 1.5 hrs by LC-MS analysis; assay type: ADME, Canis lupus familiaris, Microsome; settings: read-out: Stability
[13] = AUC (0 to infinity) in Sprague-Dawley rat at 10 mg/kg, po measured up 48 hrs by LC-MS/MS analysis; assay type: ADME, organism-based; parameters: dose 10 mg/kg, time infinity, route oral; settings: in vivo
[14] = Stability in human liver microsomes assessed as remaining compound at 100 ug/ml incubated for 1.5 hrs by LC-MS analysis; assay type: ADME, Microsome; settings: read-out: Stability
[15] = Stability in mouse liver microsomes assessed as remaining compound at 100 ug/ml incubated for 1.5 hrs by LC-MS analysis; assay type: ADME, Microsome; settings: read-out: Stability
MM1.S [16] = assay: Antitumor activity against human MM1S cells xenografted in BALB/c mouse assessed as tumor growth inhibition at 30 mg/kg, po administered for 14 days; assay type: functional; settings: 336 h, read-out: TGI
[17] = Stability in human plasma assessed as remaining compound at 100 ug/ml incubated for 1.5 hrs by LC-MS analysis; assay type: ADME, cell-free; settings: read-out: Stability
[18] = Stability in rat liver microsomes assessed as remaining compound at 100 ug/ml incubated for 1.5 hrs by LC-MS analysis; assay type: ADME, Microsome; settings: read-out: Stability
[19] = Oral bioavailability in Sprague-Dawley rat at 10 mg/kg, measured up 48 hrs by LC-MS/MS analysis; assay type: ADME, organism-based; settings: in vivo
[20] = Half life in Sprague-Dawley rat at 10 mg/kg, po measured up 48 hrs by LC-MS/MS analysis; assay type: ADME, organism-based; settings: in vivo
[21] = AUC (0 to t) in Sprague-Dawley rat at 2 mg/kg, iv measured up 48 hrs by LC-MS/MS analysis; assay type: ADME, organism-based; settings: in vivo
hERG (KCNH2) = hERG (KCNH2) (Homo sapiens, UniProt Q12809); assay: Inhibition of human ERG expressed in HEK293 cells at 3 uM at - 40 mV holding potential by whole cell patch clamp assay relative to control; assay type: cell-based; settings: HEK293 cells expressing human ERG
[22] = Cmax in Sprague-Dawley rat at 10 mg/kg, po measured up 48 hrs by LC-MS/MS analysis; assay type: ADME, organism-based; parameters: dose 10 mg/kg, route oral; settings: in vivo
[23] = Antiproliferative activity against human Mino cells assessed as reduction in cell viability; assay type: functional, cell-based
[24] = Cmax in Sprague-Dawley rat at 2 mg/kg, iv measured up 48 hrs by LC-MS/MS analysis; assay type: ADME, organism-based; parameters: dose 2 mg/kg, route intravenous; settings: in vivo
[25] = Tmax in Sprague-Dawley rat at 10 mg/kg, po measured up 48 hrs by LC-MS/MS analysis; assay type: ADME, organism-based; settings: in vivo
MM1.S [26] = assay: Antitumor activity against human MM1S cells xenografted in BALB/c mouse assessed as tumor growth inhibition at 15 mg/kg, po administered for 14 days; assay type: functional; settings: 336 h, read-out: TGI
[27] = Tmax in Sprague-Dawley rat at 2 mg/kg, iv measured up 48 hrs by LC-MS/MS analysis; assay type: ADME, organism-based; settings: in vivo
[28] = Stability in rat plasma assessed as remaining compound at 100 ug/ml incubated for 1.5 hrs by LC-MS analysis; assay type: ADME, cell-free; settings: read-out: Stability
CCRF-CEM = assay: Antiproliferative activity against human CCRF-CEM cells assessed as reduction in cell viability; assay type: functional, cell-based

RAC-alpha serine/threonine-protein kinase, sequence (P31749 whole entry): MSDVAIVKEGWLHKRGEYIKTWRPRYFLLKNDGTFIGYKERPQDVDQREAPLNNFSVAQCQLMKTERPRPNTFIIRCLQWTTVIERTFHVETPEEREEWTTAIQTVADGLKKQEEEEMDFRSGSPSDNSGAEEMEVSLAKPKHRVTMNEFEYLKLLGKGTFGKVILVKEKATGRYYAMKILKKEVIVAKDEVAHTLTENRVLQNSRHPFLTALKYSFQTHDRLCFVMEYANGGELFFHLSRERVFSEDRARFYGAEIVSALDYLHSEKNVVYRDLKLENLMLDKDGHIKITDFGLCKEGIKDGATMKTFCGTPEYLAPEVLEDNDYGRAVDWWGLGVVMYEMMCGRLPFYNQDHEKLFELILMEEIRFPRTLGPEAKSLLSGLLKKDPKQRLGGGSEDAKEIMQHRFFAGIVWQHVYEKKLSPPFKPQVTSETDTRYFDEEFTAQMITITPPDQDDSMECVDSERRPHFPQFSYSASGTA
hERG (KCNH2), sequence (Q12809 whole entry): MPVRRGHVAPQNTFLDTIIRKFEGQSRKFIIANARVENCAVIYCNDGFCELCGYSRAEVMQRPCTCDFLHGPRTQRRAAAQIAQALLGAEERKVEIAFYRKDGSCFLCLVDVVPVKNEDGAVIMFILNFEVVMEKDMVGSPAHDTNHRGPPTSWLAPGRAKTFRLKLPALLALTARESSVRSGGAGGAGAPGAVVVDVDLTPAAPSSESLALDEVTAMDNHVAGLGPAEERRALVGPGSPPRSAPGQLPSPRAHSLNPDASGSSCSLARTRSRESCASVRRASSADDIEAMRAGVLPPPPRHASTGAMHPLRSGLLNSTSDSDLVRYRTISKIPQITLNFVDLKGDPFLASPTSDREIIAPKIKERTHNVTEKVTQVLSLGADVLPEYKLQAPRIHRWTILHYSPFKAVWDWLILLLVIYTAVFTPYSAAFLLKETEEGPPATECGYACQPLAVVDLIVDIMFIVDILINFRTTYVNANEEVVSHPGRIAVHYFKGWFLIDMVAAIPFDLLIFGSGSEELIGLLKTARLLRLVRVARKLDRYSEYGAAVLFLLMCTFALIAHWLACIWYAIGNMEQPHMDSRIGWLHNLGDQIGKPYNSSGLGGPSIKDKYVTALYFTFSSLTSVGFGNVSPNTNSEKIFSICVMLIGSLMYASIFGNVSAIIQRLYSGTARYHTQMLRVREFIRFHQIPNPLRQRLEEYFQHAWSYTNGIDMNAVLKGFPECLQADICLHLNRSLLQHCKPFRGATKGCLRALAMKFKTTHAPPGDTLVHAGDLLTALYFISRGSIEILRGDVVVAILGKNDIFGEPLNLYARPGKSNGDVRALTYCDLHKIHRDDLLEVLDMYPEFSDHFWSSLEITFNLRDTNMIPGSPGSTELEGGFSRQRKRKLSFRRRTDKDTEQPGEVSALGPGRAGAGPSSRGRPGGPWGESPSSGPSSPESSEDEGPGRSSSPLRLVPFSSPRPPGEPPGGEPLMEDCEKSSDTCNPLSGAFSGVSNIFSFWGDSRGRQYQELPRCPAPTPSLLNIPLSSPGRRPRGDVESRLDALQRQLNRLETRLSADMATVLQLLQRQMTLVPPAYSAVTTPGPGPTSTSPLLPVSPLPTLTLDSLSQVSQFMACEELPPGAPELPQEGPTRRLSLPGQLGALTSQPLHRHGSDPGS

Cl.Cn1ncc(Cl)c1-c1ccc(C(=O)N[C@@H]2CNCC[C@H]2c2cccc(F)c2)s1
Activity (HCT-116 [1]): 89.62%
Activity (HCT-116 [2]): 11.66%
IC50 (OVCAR-8): 230 nM
IC50 (HCT-116 [3]): 440 nM
IC50 (HuT78): 298 nM
IC50 (K562): > 3000 nM
IC50 (MOLT-4): 50 nM
Activity (HCT-116 [4]): 22.68%
IC50 (MM1.S [5]): 21 nM
IC50 (MV4-11): 135 nM
IC50 (RPMI-8226): 263 nM
IC50 [6]: 28 nM
IC50 (JVM-2): 208 nM
IC50 (U-937): 78 nM

Cn1nccc1-c1ccc(C(=O)N[C@@H]2CNCC[C@H]2c2ccc(Cl)cc2)s1
IC50 (OVCAR-8): 1390 nM
IC50 (HCT-116 [3]): 8870 nM
IC50 [7]: 10.2 nM

Cn1ncc(Cl)c1-c1csc(C(=O)N[C@@H]2CNCC[C@H]2c2ccc(Cl)cc2)c1
IC50 (OVCAR-8): 5690 nM
IC50 (HCT-116 [3]): 1210 nM
IC50 [7]: 13.7 nM

Cn1ncc(Br)c1-c1ccc(C(=O)N[C@@H]2CNCC[C@H]2c2cccc(F)c2)s1
IC50 (HCT-116 [3]): 890 nM
IC50 [7]: 5.46 nM

Cn1nccc1-c1ccc(C(=O)N[C@@H]2CNCC[C@H]2c2cccc(F)c2)s1
IC50 (OVCAR-8): 1590 nM
IC50 (HCT-116 [3]): 1370 nM
IC50 [7]: 10.6 nM

Cl.Cn1ncc(Cl)c1-c1csc(C(=O)N[C@@H]2CNCC[C@H]2c2cccc(F)c2)c1
AUC(0-t) at 48 h [8]: 3890 ng·h/mL
Activity (HCT-116 [1]): 24.58%
Activity (HCT-116 [2]): 7.73%
half-life [9]: 3.52 h
AUC(0-inf) [10]: 1510 ng·h/mL
Activity [11]: Toxic
remaining at 1.5 h, 100 ug/ml [12]: 81.3%
AUC(0-inf) [13]: 3940 ng·h/mL
remaining at 1.5 h, 100 ug/ml [14]: 88.3%
IC50 (HCT-116 [3]): 950 nM
remaining at 1.5 h, 100 ug/ml [15]: 82.7%
inhibition in vivo at 30 mg/kg (MM1.S [16]): 42.1%
remaining at 1.5 h, 100 ug/ml [17]: > 99%
remaining at 1.5 h, 100 ug/ml [18]: 63.7%
bioavailability [19]: 52%
IC50 (K562): > 3000 nM
half-life [20]: 4.74 h
IC50 (MOLT-4): 14 nM
Activity (HCT-116 [4]): 8.69%
IC50 (MM1.S [5]): 2 nM
IC50 (MV4-11): 441 nM
IC50 (RPMI-8226): 49 nM
AUC(0-t) at 48 h [21]: 1480 ng·h/mL
IC50 [7]: 1.26 nM
inhibition at 3 µM (hERG (KCNH2)): 40%
Cmax [22]: 423 ng/mL
IC50 [23]: 531 nM
Cmax [24]: 1440 ng/mL
Tmax [25]: 2.75 h
IC50 [6]: 7 nM
inhibition in vivo at 15 mg/kg (MM1.S [26]): 40.7%
Tmax [27]: 4.98 min
IC50 (U-937): 188 nM
remaining at 1.5 h, 100 ug/ml [28]: > 99%
IC50 (CCRF-CEM): 8 nM

Cn1ncc(Cl)c1-c1ccc(C(=O)N[C@@H]2CNCC[C@H]2c2ccc(Cl)cc2)s1
IC50 (OVCAR-8): 1470 nM
IC50 (HCT-116 [3]): 3020 nM
IC50 [7]: 1.8 nM

Cn1ncc(CO)c1-c1ccc(C(=O)N[C@@H]2CNCC[C@H]2c2cccc(F)c2)s1
IC50 (OVCAR-8): 7170 nM
IC50 (HCT-116 [3]): 7420 nM
IC50 [7]: 62.2 nM

Cn1ncc(Cl)c1-c1ccc(C(=O)N[C@@H]2CNCC[C@H]2c2ccc(Cl)c(C(F)(F)F)c2)s1
IC50 (OVCAR-8): 640 nM
IC50 (HCT-116 [3]): 1410 nM
IC50 [7]: 65.2 nM

Cn1ncc(C(=O)O)c1-c1ccc(C(=O)N[C@@H]2CNCC[C@H]2c2cccc(F)c2)s1
IC50 (OVCAR-8): > 50000 nM
IC50 (HCT-116 [3]): > 50000 nM
IC50 [7]: 101 nM

C=Cc1cnn(C)c1-c1ccc(C(=O)N[C@@H]2CNCC[C@H]2c2cccc(F)c2)s1
IC50 (OVCAR-8): 3190 nM
IC50 (HCT-116 [3]): 6850 nM
IC50 [7]: 46.9 nM

Cn1ncc(-c2ccccc2)c1-c1ccc(C(=O)N[C@@H]2CNCC[C@H]2c2cccc(F)c2)s1
IC50 (OVCAR-8): 2510 nM
IC50 (HCT-116 [3]): 4420 nM
IC50 [7]: 70.4 nM

Cn1ncc(Cl)c1-c1csc(C(=O)N[C@@H]2CNCC[C@H]2c2ccc(Cl)c(C(F)(F)F)c2)c1
IC50 (OVCAR-8): 580 nM
IC50 (HCT-116 [3]): 1850 nM
IC50 [7]: 35.3 nM

CCc1cnn(C)c1-c1ccc(C(=O)N[C@@H]2CNCC[C@H]2c2cccc(F)c2)s1
IC50 (OVCAR-8): 2700 nM
IC50 (HCT-116 [3]): 2830 nM
IC50 [7]: 48.9 nM

Cn1ncc(-c2ccncc2)c1-c1ccc(C(=O)N[C@@H]2CNCC[C@H]2c2cccc(F)c2)s1
IC50 (OVCAR-8): 28000 nM
IC50 (HCT-116 [3]): 24000 nM
IC50 [7]: 99.9 nM

Cc1cnn(C)c1-c1ccc(C(=O)N[C@@H]2CNCC[C@H]2c2cccc(F)c2)s1
IC50 (OVCAR-8): 1740 nM
IC50 (HCT-116 [3]): 1780 nM
IC50 [7]: 9 nM

Cn1ncc(Cl)c1-c1cc(C(=O)N[C@H](CN)Cc2ccc(F)c(F)c2)oc1Cl [UPROSERTIB]
IC50 (OVCAR-8): 540 nM
IC50 (HCT-116 [3]): 1750 nM
IC50 (HuT78): 378 nM
inhibition in vivo at 30 mg/kg (MM1.S [16]): 36.8%
IC50 (K562): > 3000 nM
IC50 (MOLT-4): 66 nM
IC50 (MM1.S [5]): 32 nM
IC50 (MV4-11): 635 nM
IC50 (RPMI-8226): 538 nM
IC50 [6]: 30 nM
IC50 (JVM-2): 293 nM
IC50 (U-937): 101 nM
